Assay results: patent US20170182026A1, “Anti-Metastasis Treatment of Melanoma” (University Hospitals Cleveland Medical Center, priority 2015, published 2017)
Entries after “also recorded” stand apart in the source; their conditions may differ.

How the values were obtained:
connexins = test: Connexin protein levels after autophagy blockade; format: cell-based; conditions: A375.52 cells, treatment over 24 hours, FIG. 4B
Protocol: FIGS. 4A&B presents exemplary data showing an assessment of connexin inhibition on autophagic flux and autophagic blockade on connexin protein levels. […] Tubulin as a loading control. H2O=water control, CBX=Carbenoxolone, Hep=1-Eleptanol, Oct=1-octanol, D=DMSO, HCQ=Hydroxychloroquine. Connexin protein levels were also assessed for possible modification of autophagic flux. For this purpose, hydroxychloroquine, a known autophagy inhibitor and clinically available medication was used. […] Specific autophagy inhibition may be assessed using shRNA (infra).

A375.52 cells = test: Scratch assay, cell migration; format: cell-based; conditions: over 24 hours, FIG. 5C
Protocol: (§1) FIG. 5A-C presents exemplary data showing combinatory effects of hydroxychloroquine (HCQ) and 1-octanol on melanoma cell viability and death. […] 4-methyl-heptanol (1 mM) as negative control.
(§2) The effect of a combined inhibition of GJIC and autophagy was assessed, making use of Promega Cell-Titer Glo and Trypan blue exclusion assay to assess cell viability and cell death, respectively (FIG. 5A and FIG. 5B). […] (FIG. 5C) Cell migration was measured as distance traveled from the edge of a wound and not as percent wound closure.

autophagic flux [1] = test: Western blot of LC3 II/I ratio and p62 levels after connexin (GJIC) inhibitors; format: cell-based; conditions: A375.52 melanoma cells, treatment over 24 hours, FIG. 4A
Text: FIGS. 4A&B presents exemplary data showing an assessment of connexin inhibition on autophagic flux and autophagic blockade on connexin protein levels. […] Tubulin as a loading control. H2O=water control, CBX=Carbenoxolone, Hep=1-Eleptanol, Oct=1-octanol, D=DMSO, HCQ=Hydroxychloroquine.
Connexin protein levels were examined within various melanoma cell lines, see FIG. 3. […] Connexins 43 and 26 has been studied previously in melanoma, and both also have shown relationships with autophagy. […] GJIC inhibition was explored, using three known connexin inhibitors, 1-octanol, 1-heptanol and carbenoxolone, the former of which is clinically available and is labeled as a food additive by the Food and Drug Administration, which is known to affect autophagic flux. GJIC inhibition was measured by changes noted in LC3 II/I ratios and p62 levels. (FIG. 4A).

melanoma cell lines = test: Promega Cell-Titer Glo cell viability; format: cell-based; conditions: two melanoma cell lines, 72 hours, FIG. 5A
Protocol: as §1, §2

A375.52 = test: Trypan blue exclusion assay, cell death; format: cell-based; conditions: A375.52, 72 hours, FIG. 5B
Protocol: as §1, §2

[2] = tested on: gap junction intercellular communication; test: Microinjection imaging assay, spread of reporter dye; format: cell-based; conditions: time-lapse microscopy, FIGS. 7A&B
Text: FIGS. 7A&B presents exemplary data Showing cell-cell communication in Glioblastoma Stem Cells (GSCs) cells with live imaging.
The functional status of overall connexin activity after autophagy inhibition will be addressed. […] To measure this, a microinjection imaging assay will be used. One cell is co-injected with a large fluorescent IgG that is unable to leave the parental cell along with a reporter dye that is capable of spreading to adjacent cells. Combining this with time-lapse microscopy, spread of the reporter dye (Lucifer yellow, 2NBDG-a fluorescent glucose analog) can be monitored, see FIGS. 7A&B. The spread of the dye is attenuated when using gap junction inhibitors, including carbenoxolone and 1-octanol. Utilization of multiple assessments of the gap junction intercellular communication, i.e. mRNA expression, protein levels and functional activity levels may pinpoint the particular modulation of GJIC that occurs with autophagic blockade in melanoma cells. […] Additionally, shRNA against shATG5, another key autophagy protein, could be utilized to determine if there were different effects.

autophagic flux [3] = conditions: pharmacologic blockage of GJIC, reference [21]; cited from earlier work
Cx 36 and 50 = conditions: reference [49]; cited from earlier work
connexins 26, 32, and 43 = conditions: reference [49]; cited from earlier work

## CCN(CCO)CCCC(C)Nc1ccnc2cc(Cl)ccc12 (racemic) [hydroxychloroquine, (RS)-2-{{4-{(7-chloroquinolin-4-yl)amino}pentyl}(ethyl)amino}ethanol]
connexins
  levels of connexins 43 and 46: opposite effects on levels of connexins 43 and 46
  protein levels of connexins: affects the protein levels of specific connexins; also recorded: does affect protein levels of connexins, but not consistently
A375.52 cells
  cell migration (distance traveled from the edge of a wound): no effect

## CCCCCCCCO [1-octanol]
Autophagic flux [1]
  p62 levels: increased p62 levels
  total LC3 levels: changes in total LC3 levels
Melanoma cell lines
  cell viability: only small effects
A375.52
  cell death: only small effects
A375.52 cells
  cell migration (distance traveled from the edge of a wound): no effect
[2]
  spread of the reporter dye (Lucifer yellow, 2NBDG): attenuated

## CC1(C)[C@@H](O)CC[C@]2(C)[C@H]3C(=O)C=C4[C@H]5C[C@@](C)(C(=O)O)CC[C@]5(C)CC[C@@]4(C)[C@]3(C)CC[C@@H]12 [18α glycyrrhetinic acid]
Autophagic flux [3]
  autophagic flux: decreased autophagic flux

## CC1(C)[C@@H](OC(=O)CCC(=O)O)CC[C@]2(C)[C@H]3C(=O)C=C4[C@@H]5C[C@@](C)(C(=O)O)CC[C@]5(C)CC[C@@]4(C)[C@]3(C)CC[C@@H]12 [carbenoxolone]
Autophagic flux [1]
  LC3 II/I ratio: without clear changes in LC3 II/I ratio
  p62 levels: decreased p62 levels somewhat
[2]
  spread of the reporter dye (Lucifer yellow, 2NBDG): attenuated

## OC(c1cc(C(F)(F)F)nc2c(C(F)(F)F)cccc12)C1CCCCN1 (stereo not drawn) [mefloquine]
Cx 36 and 50
  block of connexin activity: block activity
Connexins 26, 32, and 43
  block of connexin activity: would require much higher doses to affect
